Measured values: paper PMC10799935, “Discovery of a peripheral 5HT2A antagonist as a clinical candidate for metabolic dysfunction-associated steatohepatitis” (Nature Communications, 2024)

How the values were obtained:
5HT2A [1] = biological target: T1, 5HT2A (Homo sapiens, UniProt P28223); assay: Human 5HT2A inhibition assay (FLIPR calcium 6, 5HT stimulus, stably transfected HEK293 cells); type: cell-based; set-up: expressed in transfected cells; host or cells: HEK293; conditions: HEK293, 10 μM; read-out: % Inhibition at 10 μM (SD)
T1 sequence (P28223 whole entry): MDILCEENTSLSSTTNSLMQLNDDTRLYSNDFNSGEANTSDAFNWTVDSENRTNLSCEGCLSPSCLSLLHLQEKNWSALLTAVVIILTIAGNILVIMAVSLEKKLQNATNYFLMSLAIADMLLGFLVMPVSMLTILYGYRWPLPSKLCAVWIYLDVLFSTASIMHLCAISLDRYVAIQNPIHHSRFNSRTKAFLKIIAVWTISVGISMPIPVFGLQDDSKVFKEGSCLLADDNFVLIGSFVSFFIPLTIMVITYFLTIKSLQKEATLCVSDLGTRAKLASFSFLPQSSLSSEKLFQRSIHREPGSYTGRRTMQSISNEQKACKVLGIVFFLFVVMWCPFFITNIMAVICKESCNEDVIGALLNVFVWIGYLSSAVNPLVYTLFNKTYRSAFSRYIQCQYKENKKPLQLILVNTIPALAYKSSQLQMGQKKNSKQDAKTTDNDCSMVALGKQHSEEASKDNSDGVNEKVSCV

5HT2A [2] = biological target: T1, 5HT2A; assay: as above; type: cell-based; set-up: expressed in transfected cells; host or cells: HEK293
Protocol: The derivatives were evaluated at a concentration of 1 μM for their antagonist activity on the 5HT2A receptor (Tables 1–3)[33],[34]. […] The cells were stained with 100 μL of cytosolic calcium dye using the FLIPR calcium 6 assay solution (Molecular devices, #R8190) supplemented with 2.5 mM probenecid (Sigma; P8761) and incubated for 1 h at 37 °C. After 1 h, the designated amount of the compound was treated in each well and incubated for another 1 h at 37 °C. […] Experimental conditions for the 5HT subtypes can be found in the Supporting Information (Supplementary Table 1).

SMILES	inhibition at 10 µM (5HT2A [1])	IC50 (5HT2A [2])	inhibition at 1 µM (5HT2A [2]; HEK293, 1 μM, read-out: % Inhibition at 1 μM (SD))
CC(C)NC(=S)N1CCC(=C2c3ccc(Cl)cc3CCc3cccnc32)CC1 [Compound 5]	8%	–	–
CN1CCC(=C2c3ccc(Cl)cc3CCc3cccnc32)CC1 [Compound 6]	95 ± 0.31%	119 nM	90 ± 0.62%
